Data published in article PMC9570233, “Improving Both the Thermostability and Catalytic Efficiency of Phospholipase D from Moritella sp. JT01 through Disulfide Bond Engineering Strategy” (International Journal of Molecular Sciences, 2022).
Positions count from the first letter of the chain named.

What was measured:
MsPLD [1] = biological target: T1, MsPLD (Moritella sp. JT01, UniProt A0A137SLD1, S169C/T227C/D246C/A349C); test: coupled choline oxidase/peroxidase colorimetric assay ([…] nm), non-linear regression; assay type: biochemical; details: 35 °C, pH 8.0, PC 1.0-3.0 mM, 5 min; hydrolysis; free enzyme
T1 construct: gene AKG98_3441; tag removal not mentioned
T1 sequence (A0A137SLD1 29-578 S169C/T227C/D246C/A349C): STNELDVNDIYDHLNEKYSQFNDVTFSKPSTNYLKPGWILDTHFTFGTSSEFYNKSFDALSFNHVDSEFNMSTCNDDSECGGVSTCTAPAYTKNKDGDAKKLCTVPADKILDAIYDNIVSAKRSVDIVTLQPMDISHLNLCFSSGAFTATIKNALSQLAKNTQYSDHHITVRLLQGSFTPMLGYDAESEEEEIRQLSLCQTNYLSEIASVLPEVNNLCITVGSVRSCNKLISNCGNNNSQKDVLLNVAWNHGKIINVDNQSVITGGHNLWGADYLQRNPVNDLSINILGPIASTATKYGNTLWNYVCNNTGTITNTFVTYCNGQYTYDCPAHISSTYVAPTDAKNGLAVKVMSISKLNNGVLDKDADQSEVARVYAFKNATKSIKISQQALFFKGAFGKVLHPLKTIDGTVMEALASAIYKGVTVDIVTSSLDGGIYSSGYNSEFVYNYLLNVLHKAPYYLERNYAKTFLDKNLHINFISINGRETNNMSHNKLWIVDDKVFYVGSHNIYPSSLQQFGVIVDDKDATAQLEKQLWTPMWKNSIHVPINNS

MsPLD [2] = biological target: T2, MsPLD (Moritella sp. JT01, UniProt A0A137SLD1); test: as above; assay type: biochemical; details: 35 °C, pH 8.0, PC 1.0-3.0 mM, 5 min; hydrolysis; free enzyme
T2 construct: gene AKG98_3441; tag removal not mentioned
T2 sequence (A0A137SLD1 29-578): T1 sequence (A0A137SLD1 29-578 S169C/T227C/D246C/A349C) with C141S, C199T, C218D, C321A

L-α-phosphatidylcholine
Km (MsPLD [1]): 2.71 ± 0.89 mM | Km (MsPLD [2]): 3.44 ± 0.81 mM
